Experimental data published in PubChem BioAssay (NCI).
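Each compound was tested at five concentrations against cells in 96-well plates for 48 hours. GI50: concentration for 50% inhibition of growth. TGI denotes the concentration required for complete inhibition of growth.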

Key:
Assay in all cases: NCI tumour cell line growth inhibition, 48 h
786-0 renal = system: 786-0 renal
A498 renal = system: A498 renal
A549 NSCLC = system: A549 NSCLC
ACHN renal = system: ACHN renal
BT-549 breast = system: BT-549 breast
CAKI-1 renal = system: CAKI-1 renal
CCRF-CEM leukemia = system: CCRF-CEM leukemia
COLO 205 colon = system: COLO 205 colon
DU-145 prostate = system: DU-145 prostate
EKVX NSCLC = system: EKVX NSCLC
HCC-2998 colon = system: HCC-2998 colon
HCT-116 colon = system: HCT-116 colon
HCT-15 colon = system: HCT-15 colon
HL-60(TB) leukemia = system: HL-60(TB) leukemia
HOP-62 NSCLC = system: HOP-62 NSCLC
HOP-92 NSCLC = system: HOP-92 NSCLC
HS 578T breast = system: HS 578T breast
HT29 colon = system: HT29 colon
IGROV1 ovarian = system: IGROV1 ovarian
K-562 leukemia = system: K-562 leukemia
KM12 colon = system: KM12 colon
LOX IMVI melanoma = system: LOX IMVI melanoma
M14 melanoma = system: M14 melanoma
MALME-3M melanoma = system: MALME-3M melanoma
MCF7 breast = system: MCF7 breast
MDA-MB-231 breast = system: MDA-MB-231 breast
MDA-MB-435 = system: MDA-MB-435
MOLT-4 leukemia = system: MOLT-4 leukemia
NCI-H226 lung = system: NCI-H226 lung
NCI-H23 lung = system: NCI-H23 lung
NCI-H460 lung = system: NCI-H460 lung
NCI-H522 lung = system: NCI-H522 lung
NCI/ADR-RES ovarian = system: NCI/ADR-RES ovarian
OVCAR-3 ovarian = system: OVCAR-3 ovarian
OVCAR-4 ovarian = system: OVCAR-4 ovarian
OVCAR-5 ovarian = system: OVCAR-5 ovarian
OVCAR-8 ovarian = system: OVCAR-8 ovarian
PC-3 prostate = system: PC-3 prostate
RPMI-8226 leukemia = system: RPMI-8226 leukemia
RXF 393 renal = system: RXF 393 renal
SF-268 CNS = system: SF-268 CNS
SF-295 CNS = system: SF-295 CNS
SF-539 CNS = system: SF-539 CNS
SK-MEL-2 melanoma = system: SK-MEL-2 melanoma
SK-MEL-28 melanoma = system: SK-MEL-28 melanoma
SK-MEL-5 melanoma = system: SK-MEL-5 melanoma
SK-OV-3 ovarian = system: SK-OV-3 ovarian
SNB-19 CNS = system: SNB-19 CNS
SNB-75 CNS = system: SNB-75 CNS
SR leukemia = system: SR leukemia
SW-620 colon = system: SW-620 colon
T-47D breast = system: T-47D breast
TK-10 renal = system: TK-10 renal
U251 CNS = system: U251 CNS
UACC-257 melanoma = system: UACC-257 melanoma
UO-31 renal = system: UO-31 renal

`COC(=O)[C@]12CC[C@@H](C)[C@H](C)[C@@H]1C1=CC[C@@H]3[C@@]4(C)C[C@@H](OC(C)=O)[C@H](O)[C@@](C)(CO)[C@@H]4[C@H](O)C[C@@]3(C)[C@]1(C)CC2` was tested, and the GI50 (786-0 renal) was 14.5 µM, the TGI (786-0 renal) was 29.8 µM and the GI50 (A498 renal) was 11.9 µM. For the same molecule, the TGI (A498 renal) was 24.7 µM, the GI50 (A549 NSCLC) was 6.39 µM and the TGI (A549 NSCLC) was 20.8 µM. It also gave a GI50 (ACHN renal) of 10.4 µM, a TGI (ACHN renal) of 24.5 µM and a GI50 (BT-549 breast) of 15 µM. It also gave a TGI (BT-549 breast) of 29.8 µM, a GI50 (CAKI-1 renal) of 10.1 µM and a TGI (CAKI-1 renal) of 21.9 µM. It also gave a GI50 (CCRF-CEM leukemia) of 12.8 µM, a TGI (CCRF-CEM leukemia) of 36.5 µM and a GI50 (COLO 205 colon) of 11.6 µM. It also gave a TGI (COLO 205 colon) of 25.9 µM, a GI50 (DU-145 prostate) of 13 µM and a TGI (DU-145 prostate) of 26.4 µM. It also gave a GI50 (EKVX NSCLC) of 10.5 µM, a TGI (EKVX NSCLC) of 24.6 µM and a GI50 (HCC-2998 colon) of 12 µM. The TGI (HCC-2998 colon) was 26.7 µM, the GI50 (HCT-116 colon) was 11.8 µM and the TGI (HCT-116 colon) was 25.4 µM. The GI50 (HCT-15 colon) was 7.74 µM, the TGI (HCT-15 colon) was 22.9 µM and the GI50 (HL-60(TB) leukemia) was 13.9 µM. The TGI (HL-60(TB) leukemia) was 31.6 µM, the GI50 (HOP-62 NSCLC) was 14.7 µM and the TGI (HOP-62 NSCLC) was 29.5 µM. It also gave a GI50 (HOP-92 NSCLC) of 11.3 µM, a TGI (HOP-92 NSCLC) of 24.3 µM and a GI50 (HS 578T breast) of 11.9 µM. It also gave a TGI (HS 578T breast) of 29.6 µM, a GI50 (HT29 colon) of 5.79 µM and a TGI (HT29 colon) of 20.4 µM. It also gave a GI50 (IGROV1 ovarian) of 8.87 µM, a TGI (IGROV1 ovarian) of 24.8 µM and a GI50 (K-562 leukemia) of 9.18 µM. It also gave a TGI (K-562 leukemia) of 27.4 µM, a GI50 (KM12 colon) of 9.95 µM and a TGI (KM12 colon) of 26.7 µM. It also gave a GI50 (LOX IMVI melanoma) of 10.4 µM, a TGI (LOX IMVI melanoma) of 23.6 µM and a GI50 (M14 melanoma) of 8.14 µM. For the same molecule, the TGI (M14 melanoma) was 22.2 µM, the GI50 (MALME-3M melanoma) was 17.2 µM and the TGI (MALME-3M melanoma) was 33 µM. It also gave a GI50 (MCF7 breast) of 4.95 µM, a TGI (MCF7 breast) of 20.9 µM and a GI50 (MDA-MB-231 breast) of 8.95 µM. The TGI (MDA-MB-231 breast) was 23.4 µM, the GI50 (MDA-MB-435) was 12.6 µM and the TGI (MDA-MB-435) was 26 µM. For the same molecule, the GI50 (MOLT-4 leukemia) was 5.82 µM, the TGI (MOLT-4 leukemia) was 22 µM and the GI50 (NCI-H226 lung) was 16.3 µM. For the same molecule, the TGI (NCI-H226 lung) was 38.2 µM, the GI50 (NCI-H23 lung) was 13.6 µM and the TGI (NCI-H23 lung) was 30 µM. It also gave a GI50 (NCI-H460 lung) of 10.6 µM, a TGI (NCI-H460 lung) of 26.3 µM and a GI50 (NCI-H522 lung) of 11.2 µM. The TGI (NCI-H522 lung) was 26.2 µM, the GI50 (NCI/ADR-RES ovarian) was 13.2 µM and the TGI (NCI/ADR-RES ovarian) was 29.5 µM. The GI50 (OVCAR-3 ovarian) was 13.4 µM, the TGI (OVCAR-3 ovarian) was 29.9 µM and the GI50 (OVCAR-4 ovarian) was 12 µM. For the same molecule, the TGI (OVCAR-4 ovarian) was 27 µM, the GI50 (OVCAR-5 ovarian) was 13.2 µM and the TGI (OVCAR-5 ovarian) was 27.7 µM. For the same molecule, the GI50 (OVCAR-8 ovarian) was 12.2 µM, the TGI (OVCAR-8 ovarian) was 30.4 µM and the GI50 (PC-3 prostate) was 7.53 µM. It also gave a TGI (PC-3 prostate) of 20.5 µM, a GI50 (RPMI-8226 leukemia) of 7.86 µM and a TGI (RPMI-8226 leukemia) of 31.7 µM. It also gave a GI50 (RXF 393 renal) of 11 µM, a TGI (RXF 393 renal) of 26.4 µM and a GI50 (SF-268 CNS) of 10.8 µM. The TGI (SF-268 CNS) was 28.2 µM, the GI50 (SF-295 CNS) was 11.6 µM and the TGI (SF-295 CNS) was 25.1 µM. The GI50 (SF-539 CNS) was 14.8 µM, the TGI (SF-539 CNS) was 29.4 µM and the GI50 (SK-MEL-2 melanoma) was 17.7 µM. The TGI (SK-MEL-2 melanoma) was 34.1 µM, the GI50 (SK-MEL-28 melanoma) was 13 µM and the TGI (SK-MEL-28 melanoma) was 28.6 µM. For the same molecule, the GI50 (SK-MEL-5 melanoma) was 12.9 µM, the TGI (SK-MEL-5 melanoma) was 26 µM and the GI50 (SK-OV-3 ovarian) was 16.6 µM. The TGI (SK-OV-3 ovarian) was 30.7 µM, the GI50 (SNB-19 CNS) was 14.3 µM and the TGI (SNB-19 CNS) was 31.3 µM. It also gave a GI50 (SNB-75 CNS) of 10.2 µM, a TGI (SNB-75 CNS) of 23.1 µM and a GI50 (SR leukemia) of 7.62 µM. It also gave a TGI (SR leukemia) of 25.5 µM, a GI50 (SW-620 colon) of 16 µM and a TGI (SW-620 colon) of 35.6 µM. It also gave a GI50 (T-47D breast) of 12.4 µM, a TGI (T-47D breast) of 28.7 µM and a GI50 (TK-10 renal) of 15 µM. The TGI (TK-10 renal) was 29 µM, the GI50 (U251 CNS) was 10.7 µM and the TGI (U251 CNS) was 23.9 µM. The GI50 (UACC-257 melanoma) was 13.4 µM, the TGI (UACC-257 melanoma) was 28.1 µM and the GI50 (UO-31 renal) was 3.58 µM. For the same molecule, the TGI (UO-31 renal) was 17.1 µM.
